# From ChEMBL document CHEMBL1156482, “Molecular mechanism of action of monocyclam versus bicyclam non-peptide antagonists in the CXCR4 chemokine receptor” (J Biol Chem, 2007)
# Active and inactive are the calls of the source. The calls are words filed in the database; no cut-off is given here.
# How the values were obtained:
# [1] = system: C-X-C chemokine receptor type 4 (Homo sapiens), P61073 [D262N]; experiment: (§1) Displacement of [125I]12G5 antibody from transmembrane domain 6 of human CXCR4 D262N mutant expressed in COS7 cells; type: cell-based; conditions: COS-7
# Sequence of C-X-C chemokine receptor type 4 (Homo sapiens), P61073 [D262N] (P61073 whole entry D262N, the tested form may be a part): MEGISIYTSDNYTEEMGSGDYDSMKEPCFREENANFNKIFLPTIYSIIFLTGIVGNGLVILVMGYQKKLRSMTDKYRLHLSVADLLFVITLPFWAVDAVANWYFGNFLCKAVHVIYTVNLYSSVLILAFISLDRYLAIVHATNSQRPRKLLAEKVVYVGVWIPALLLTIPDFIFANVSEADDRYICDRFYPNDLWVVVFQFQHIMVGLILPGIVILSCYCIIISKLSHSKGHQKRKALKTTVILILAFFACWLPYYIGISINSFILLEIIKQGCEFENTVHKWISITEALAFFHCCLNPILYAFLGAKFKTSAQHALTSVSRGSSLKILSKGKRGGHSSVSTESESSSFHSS
# [2] = target: T1, C-X-C chemokine receptor type 4 (Homo sapiens, UniProt P61073, D262N); experiment: as §1; type: cell-based, COS-7
# T1 sequence (P61073 whole entry D262N, the tested form may be a part): as above
# [3] = system: C-X-C chemokine receptor type 4 (Homo sapiens), P61073 [H113A]; experiment: (§2) Displacement of [125I]12G5 antibody from transmembrane domain 3 of human CXCR4 H113A mutant expressed in COS7 cells; type: cell-based; conditions: COS-7
# Sequence of C-X-C chemokine receptor type 4 (Homo sapiens), P61073 [H113A] (P61073 whole entry H113A, the tested form may be a part): as the sequence (P61073 whole entry D262N, the tested form may be a part) above, with H113A, N262D counted along it
# [4] = target: T2, C-X-C chemokine receptor type 4 (Homo sapiens, UniProt P61073, H113A); experiment: as §2; type: cell-based, COS-7
# T2 sequence (P61073 whole entry H113A): as the sequence (P61073 whole entry D262N, the tested form may be a part) above, with H113A, N262D counted along it
# [5] = system: C-X-C chemokine receptor type 4 (Homo sapiens), P61073 [T287A]; experiment: (§3) Antagonist activity at human CXCR4 T287A mutant expressed in COS7 cells coexpressing G protein Gqi4myr assessed as inhibition of CXCL12-induced phosphatidylinositol turnover; type: functional, cell-based; conditions: COS-7
# [6] = target: C-X-C chemokine receptor type 4 (Homo sapiens, UniProt P61073, T287A); experiment: as §3; type: functional, cell-based, COS-7
# [7] = system: Human immunodeficiency virus 1; experiment: Antiviral activity against HIV1 clinical isolate 10 infected in U87.CD4 cells expressing human wild type CXCR4; type: functional, organism-based; conditions: Human immunodeficiency virus 1, U87.CD4
# [8] = system: C-X-C chemokine receptor type 4 (Homo sapiens), P61073 [Q200A]; experiment: (§4) Antagonist activity at human CXCR4 Q200A mutant expressed in COS7 cells coexpressing G protein Gqi4myr assessed as inhibition of CXCL12-induced phosphatidylinositol turnover; type: functional, cell-based; conditions: COS-7
# [9] = target: C-X-C chemokine receptor type 4 (Homo sapiens, UniProt P61073, Q200A); experiment: as §4; type: functional, cell-based, COS-7
# [10] = target: C-X-C chemokine receptor type 4 (Homo sapiens, UniProt P61073, V196A); experiment: (§5) Antagonist activity at human CXCR4 V196A mutant expressed in COS7 cells coexpressing G protein Gqi4myr assessed as inhibition of CXCL12-induced phosphatidylinositol turnover; type: functional, cell-based, COS-7
# [11] = system: C-X-C chemokine receptor type 4 (Homo sapiens), P61073 [V196A]; experiment: as §5; type: functional, cell-based; conditions: COS-7
# [12] = system: C-X-C chemokine receptor type 4 (Homo sapiens), P61073 [L120F]; experiment: (§6) Antagonist activity at human CXCR4 L120F mutant expressed in COS7 cells coexpressing G protein Gqi4myr assessed as inhibition of CXCL12-induced phosphatidylinositol turnover; type: functional, cell-based; conditions: COS-7
# [13] = target: C-X-C chemokine receptor type 4 (Homo sapiens, UniProt P61073, L120F); experiment: as §6; type: functional, cell-based, COS-7
# Sequence of C-X-C chemokine receptor type 4 (Homo sapiens, UniProt P61073, L120F) (P61073 whole entry L120F): as the sequence (P61073 whole entry D262N, the tested form may be a part) above, with L120F, N262D counted along it
# [14] = system: Human immunodeficiency virus 1; experiment: Antiviral activity against HIV1 NDK infected in U87.CD4 cells expressing human CXCR4 H281A mutant; type: functional, organism-based; conditions: Human immunodeficiency virus 1, NDK
# [15] = system: Human immunodeficiency virus 1; experiment: Antiviral activity against HIV1 clinical isolate 10 infected in U87.CD4 cells expressing human CXCR4 D171N mutant; type: functional, organism-based; conditions: Human immunodeficiency virus 1, U87.CD4
# [16] = target: C-X-C chemokine receptor type 4 (Homo sapiens, UniProt P61073, E288A); experiment: (§7) Antagonist activity at human CXCR4 E288A mutant expressed in COS7 cells coexpressing G protein Gqi4myr assessed as inhibition of CXCL12-induced phosphatidylinositol turnover; type: functional, cell-based, COS-7
# Sequence of C-X-C chemokine receptor type 4 (Homo sapiens, UniProt P61073, E288A) (P61073 whole entry E288A): as the sequence (P61073 whole entry D262N, the tested form may be a part) above, with N262D, E288A counted along it
# [17] = system: C-X-C chemokine receptor type 4 (Homo sapiens), P61073 [E288A]; experiment: as §7; type: functional, cell-based; conditions: COS-7
# Sequence of C-X-C chemokine receptor type 4 (Homo sapiens), P61073 [E288A] (P61073 whole entry E288A): as the sequence (P61073 whole entry D262N, the tested form may be a part) above, with N262D, E288A counted along it
# [18] = target: C-X-C chemokine receptor type 4 (Homo sapiens, UniProt P61073, D182A); experiment: (§8) Displacement of [125I]12G5 antibody from extracellular loop 2 of human CXCR4 D182A mutant expressed in COS7 cells; type: cell-based, COS-7
# Sequence of C-X-C chemokine receptor type 4 (Homo sapiens, UniProt P61073, D182A) (P61073 whole entry D182A): as the sequence (P61073 whole entry D262N, the tested form may be a part) above, with D182A, N262D counted along it
# [19] = system: C-X-C chemokine receptor type 4 (Homo sapiens), P61073 [D182A]; experiment: as §8; type: cell-based; conditions: COS-7
# Sequence of C-X-C chemokine receptor type 4 (Homo sapiens), P61073 [D182A] (P61073 whole entry D182A, the tested form may be a part): as the sequence (P61073 whole entry D262N, the tested form may be a part) above, with D182A, N262D counted along it
# [20] = target: T3, C-X-C chemokine receptor type 4 (Homo sapiens, UniProt P61073, I259W); experiment: (§9) Displacement of [125I]12G5 antibody from transmembrane domain 6 of human CXCR4 I259W mutant expressed in COS7 cells; type: cell-based, COS-7
# T3 sequence (P61073 whole entry I259W, the tested form may be a part): as the sequence (P61073 whole entry D262N, the tested form may be a part) above, with I259W, N262D counted along it
# [21] = system: C-X-C chemokine receptor type 4 (Homo sapiens), P61073 [I259W]; experiment: as §9; type: cell-based; conditions: COS-7
# Sequence of C-X-C chemokine receptor type 4 (Homo sapiens), P61073 [I259W] (P61073 whole entry I259W): as the sequence (P61073 whole entry D262N, the tested form may be a part) above, with I259W, N262D counted along it
# [22] = system: C-X-C chemokine receptor type 4 (Homo sapiens), P61073 [A175F]; experiment: (§10) Displacement of [125I]12G5 antibody from extracellular loop 2 of human CXCR4 A175F mutant expressed in COS7 cells; type: cell-based; conditions: COS-7
# Sequence of C-X-C chemokine receptor type 4 (Homo sapiens), P61073 [A175F] (P61073 whole entry A175F): as the sequence (P61073 whole entry D262N, the tested form may be a part) above, with A175F, N262D counted along it
# [23] = target: C-X-C chemokine receptor type 4 (Homo sapiens, UniProt P61073, A175F); experiment: as §10; type: cell-based, COS-7
# Sequence of C-X-C chemokine receptor type 4 (Homo sapiens, UniProt P61073, A175F) (P61073 whole entry A175F): as the sequence (P61073 whole entry D262N, the tested form may be a part) above, with A175F, N262D counted along it
# [24] = system: Human immunodeficiency virus 1; experiment: Antiviral activity against HIV1 clinical isolate 10 infected in U87.CD4 cells expressing human CXCR4 D262N mutant; type: functional, organism-based; conditions: Human immunodeficiency virus 1, U87.CD4
# [25] = system: C-X-C chemokine receptor type 4 (Homo sapiens), P61073 [D262N]; experiment: (§11) Antagonist activity at human CXCR4 D262N mutant expressed in COS7 cells coexpressing G protein Gqi4myr assessed as inhibition of CXCL12-induced phosphatidylinositol turnover; type: functional, cell-based; conditions: COS-7
# [26] = target: T1, C-X-C chemokine receptor type 4; experiment: as §11; type: functional, cell-based, COS-7
# [27] = system: Human immunodeficiency virus 1; experiment: Antiviral activity against HIV1 NL43 infected in U87.CD4 cells expressing human CXCR4 D262N mutant; type: functional, organism-based; conditions: Human immunodeficiency virus 1, NL43, U87.CD4
# [28] = system: Human immunodeficiency virus 1; experiment: Antiviral activity against HIV1 NL43 infected in U87.CD4 cells expressing human CXCR4 D171N mutant; type: functional, organism-based; conditions: Human immunodeficiency virus 1, NL43, U87.CD4
# [29] = system: C-X-C chemokine receptor type 4 (Homo sapiens), P61073 [H113A]; experiment: (§12) Antagonist activity at human CXCR4 H113A mutant expressed in COS7 cells coexpressing G protein Gqi4myr assessed as inhibition of CXCL12-induced phosphatidylinositol turnover; type: functional, cell-based; conditions: COS-7
# [30] = target: T2, C-X-C chemokine receptor type 4; experiment: as §12; type: functional, cell-based, COS-7
# [31] = system: C-X-C chemokine receptor type 4 (Homo sapiens), P61073 [D171N]; experiment: (§13) Displacement of [125I]12G5 antibody from transmembrane domain 4 of human CXCR4 D171N mutant expressed in COS7 cells; type: cell-based; conditions: COS-7
# [32] = target: C-X-C chemokine receptor type 4 (Homo sapiens, UniProt P61073, D171N); experiment: as §13; type: cell-based, COS-7
# [33] = system: Human immunodeficiency virus 1; experiment: Antiviral activity against HIV1 NDK infected in U87.CD4 cells expressing human CXCR4 D171ND262N mutant; type: functional, organism-based; conditions: Human immunodeficiency virus 1, NDK
# [34] = system: Human immunodeficiency virus 1; experiment: Antiviral activity against HIV1 NL43 infected in U87.CD4 cells expressing human wild type CXCR4; type: functional, organism-based; conditions: Human immunodeficiency virus 1, NL43, U87.CD4
# [35] = system: C-X-C chemokine receptor type 4 (Homo sapiens), P61073 [F174A]; experiment: (§14) Displacement of [125I]12G5 antibody from transmembrane domain 4 of human CXCR4 F174A mutant expressed in COS7 cells; type: cell-based; conditions: COS-7
# [36] = target: C-X-C chemokine receptor type 4 (Homo sapiens, UniProt P61073, F174A); experiment: as §14; type: cell-based, COS-7
# [37] = system: C-X-C chemokine receptor type 4 (Homo sapiens), P61073 [I284A]; experiment: (§15) Antagonist activity at human CXCR4 I284A mutant expressed in COS7 cells coexpressing G protein Gqi4myr assessed as inhibition of CXCL12-induced phosphatidylinositol turnover; type: functional, cell-based; conditions: COS-7
# [38] = target: C-X-C chemokine receptor type 4 (Homo sapiens, UniProt P61073, I284A); experiment: as §15; type: functional, cell-based, COS-7
# [39] = target: T3, C-X-C chemokine receptor type 4; experiment: (§16) Antagonist activity at human CXCR4 I259W mutant expressed in COS7 cells coexpressing G protein Gqi4myr assessed as inhibition of CXCL12-induced phosphatidylinositol turnover; type: functional, cell-based, COS-7
# [40] = system: C-X-C chemokine receptor type 4 (Homo sapiens), P61073 [I259W]; experiment: as §16; type: functional, cell-based; conditions: COS-7
# [41] = system: C-X-C chemokine receptor type 4 (Homo sapiens), P61073 [H281A]; experiment: Antagonist activity at human CXCR4 H281A mutant expressed in U87.CD4 cells assessed as inhibition of CXCL12-induced calcium mobilization; type: functional, cell-based
structure (smiles),measurement,setting,value
c1ccc(CNCc2ccc(CN3CCCNCCNCCCNCC3)cc2)nc1,logKi,[1],-3.22
same,Ki,[2],600000 nM
same,logKi,[3],-5.6
same,Ki,[4],2500 nM
same,logIC50,[5],-8.1
same,Ki,[6],10 nM
same,IC50,[7],4700 nM
same,logIC50,[8],-6.84
same,Ki,[9],150 nM
same,Ki,[10],200 nM
same,logIC50,[11],-7.71
same,logIC50,[12],-8.18
same,Ki,[13],10 nM
same,IC50,[14],37 nM
same,IC50,[15],183000 nM
same,Ki,[16],1900 nM
same,logIC50,[17],-5.17
same,Ki,[18],40 nM
same,logKi,[19],-7.44
same,Ki,[20],18000 nM
same,logKi,[21],-4.75
same,logKi,[22],-3.67
same,Ki,[23],215000 nM
same,IC50,[24],3820 nM
same,logIC50,[25],-5.11
same,Ki,[26],7800 nM
same,IC50,[27],38 nM
same,IC50,[28],164000 nM
same,logIC50,[29],-6.89
same,Ki,[30],130 nM
same,logKi,[31],-5.49
same,Ki,[32],3200 nM
same,IC50,[33],4640 nM
same,IC50,[34],36000 nM
same,logKi,[35],-6.01
same,Ki,[36],980 nM
same,logIC50,[37],-7.5
same,Ki,[38],30 nM
same,Ki,[39],80 nM
same,logIC50,[40],-7.08
same,Activity,[41],inactive
